The source made the active and inactive calls.
What was measured:
Bcl-2-related protein A1 [1] = target: T1, Bcl-2-related protein A1 (Mus musculus, UniProt Q07440); experiment: displacement of Bid BH3 peptide from Bfl-1 – biochemical, fluorescence polarization, FITC-Bid, mouse, primary screen (AID 432)
T1 sequence (Q07440 whole entry): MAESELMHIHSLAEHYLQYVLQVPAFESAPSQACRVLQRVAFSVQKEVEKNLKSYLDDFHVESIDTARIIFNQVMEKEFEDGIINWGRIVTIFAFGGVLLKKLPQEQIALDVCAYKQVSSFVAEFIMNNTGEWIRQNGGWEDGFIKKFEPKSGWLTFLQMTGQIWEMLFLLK

Bcl-2-related protein A1 [2] = target: T1, Bcl-2-related protein A1; experiment: small-molecule antagonists of Bfl-1/BH3 interaction – biochemical, TR-FRET, mouse Bfl-1, confirmation (AID 621);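 note: TR-FRET binding of GST-Bfl-1 to FITC-labelled Bid peptide via terbium antibody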
[3] = target: T2, Tyrosine-protein phosphatase non-receptor type 7 (Homo sapiens, UniProt P35236); experiment: HePTP tyrosine phosphatase activity blockers – biochemical, absorbance, leukemia target, primary screen (AID 521); assay type: functional
T2 sequence (P35236 whole entry): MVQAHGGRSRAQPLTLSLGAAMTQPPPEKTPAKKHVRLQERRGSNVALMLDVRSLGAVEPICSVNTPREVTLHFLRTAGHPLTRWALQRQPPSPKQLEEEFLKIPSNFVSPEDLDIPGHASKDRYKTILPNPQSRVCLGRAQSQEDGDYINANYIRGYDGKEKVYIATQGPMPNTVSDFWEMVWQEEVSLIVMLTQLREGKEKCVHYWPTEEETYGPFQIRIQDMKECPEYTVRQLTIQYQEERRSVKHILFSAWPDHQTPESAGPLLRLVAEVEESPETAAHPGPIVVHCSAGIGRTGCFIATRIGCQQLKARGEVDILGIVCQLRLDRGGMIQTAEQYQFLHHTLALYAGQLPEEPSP

[4] = target: T3, Peroxisome proliferator-activated receptor gamma/Nuclear receptor coactivator 1 (Homo sapiens, UniProt P37231); experiment: TR-FRET dose response biochemical High Throughput Screening assay for agonists of the steroid receptor coactivator 1 (SRC-1) recruitment by the peroxisome proliferator-activated receptor gamma (PPAR gamma): non-selective agonists. [Related pubchem assays (depositor defined):AID1300, AID1808, AID504735, AID631]; assay type: protein assay
[5] = target: T4, Peroxisome proliferator-activated receptor gamma/Nuclear receptor coactivator 3 (Homo sapiens, UniProt P37231); experiment: TR-FRET dose response biochemical High Throughput Screening assay for agonists of the steroid receptor coactivator 3 (SRC-3) recruitment by the peroxisome proliferator-activated receptor gamma (PPAR gamma): non-selective agonists. [Related pubchem assays: 1301 (Confirmation screen.), 1048 (Primary screen.)]; assay type: functional
T4 sequence (P37231 whole entry): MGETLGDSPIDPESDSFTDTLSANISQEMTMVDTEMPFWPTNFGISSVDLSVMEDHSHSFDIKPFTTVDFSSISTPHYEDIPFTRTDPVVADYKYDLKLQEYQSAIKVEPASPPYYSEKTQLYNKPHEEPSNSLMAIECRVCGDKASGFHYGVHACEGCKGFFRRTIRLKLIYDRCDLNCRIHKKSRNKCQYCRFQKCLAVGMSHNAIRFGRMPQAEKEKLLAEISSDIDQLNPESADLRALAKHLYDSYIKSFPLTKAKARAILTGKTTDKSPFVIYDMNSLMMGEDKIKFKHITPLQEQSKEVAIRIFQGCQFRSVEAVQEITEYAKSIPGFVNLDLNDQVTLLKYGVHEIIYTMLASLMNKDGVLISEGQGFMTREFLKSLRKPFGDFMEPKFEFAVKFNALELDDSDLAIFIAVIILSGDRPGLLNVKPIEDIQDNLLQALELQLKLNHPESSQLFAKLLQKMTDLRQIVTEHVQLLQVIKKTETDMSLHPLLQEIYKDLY
T4 sequence (Q9Y6Q9 whole entry, further chain): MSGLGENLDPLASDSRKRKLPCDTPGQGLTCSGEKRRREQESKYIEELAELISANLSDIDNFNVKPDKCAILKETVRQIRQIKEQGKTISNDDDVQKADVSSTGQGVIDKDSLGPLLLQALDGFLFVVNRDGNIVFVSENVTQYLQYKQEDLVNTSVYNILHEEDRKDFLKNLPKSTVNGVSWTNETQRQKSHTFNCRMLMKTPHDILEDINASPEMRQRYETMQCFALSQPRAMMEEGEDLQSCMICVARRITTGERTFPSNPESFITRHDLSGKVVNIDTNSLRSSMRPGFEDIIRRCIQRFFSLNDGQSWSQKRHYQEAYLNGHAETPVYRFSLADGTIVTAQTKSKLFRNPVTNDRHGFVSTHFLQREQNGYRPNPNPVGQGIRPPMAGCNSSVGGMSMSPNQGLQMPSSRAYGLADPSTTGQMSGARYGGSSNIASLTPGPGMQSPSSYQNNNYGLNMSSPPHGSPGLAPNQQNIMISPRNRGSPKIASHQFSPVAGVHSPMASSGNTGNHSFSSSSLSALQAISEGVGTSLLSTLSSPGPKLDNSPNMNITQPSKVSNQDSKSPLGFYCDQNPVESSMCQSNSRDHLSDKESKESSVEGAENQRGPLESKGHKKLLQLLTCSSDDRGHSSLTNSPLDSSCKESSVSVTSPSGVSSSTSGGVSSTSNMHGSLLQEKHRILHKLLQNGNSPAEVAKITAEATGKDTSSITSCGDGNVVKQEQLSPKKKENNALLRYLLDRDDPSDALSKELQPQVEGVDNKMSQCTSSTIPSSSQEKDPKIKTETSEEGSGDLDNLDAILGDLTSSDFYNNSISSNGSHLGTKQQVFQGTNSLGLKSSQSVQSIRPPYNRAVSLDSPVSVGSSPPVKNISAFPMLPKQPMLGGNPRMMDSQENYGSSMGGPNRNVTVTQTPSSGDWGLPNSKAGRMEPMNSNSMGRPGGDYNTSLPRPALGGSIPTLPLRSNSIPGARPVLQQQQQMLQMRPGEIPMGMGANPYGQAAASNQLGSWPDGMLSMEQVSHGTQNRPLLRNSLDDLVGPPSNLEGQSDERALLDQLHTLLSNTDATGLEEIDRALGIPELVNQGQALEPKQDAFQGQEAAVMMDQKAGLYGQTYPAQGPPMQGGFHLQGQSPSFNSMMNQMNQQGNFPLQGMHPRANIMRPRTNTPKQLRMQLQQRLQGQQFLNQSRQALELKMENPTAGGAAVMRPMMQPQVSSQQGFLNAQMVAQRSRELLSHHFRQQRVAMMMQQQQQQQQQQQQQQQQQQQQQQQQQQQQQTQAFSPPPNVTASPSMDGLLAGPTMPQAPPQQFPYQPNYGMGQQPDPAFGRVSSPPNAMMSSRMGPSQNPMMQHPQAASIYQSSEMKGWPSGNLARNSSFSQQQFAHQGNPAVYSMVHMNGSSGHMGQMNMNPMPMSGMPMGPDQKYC

[6] = HPDE-C7 pancreatic duct cell viability loss – fluorescence, HTS (AID 430); assay type: functional, cell-based; conditions: Homo sapiens
[7] = M. tuberculosis growth inhibition, HTS (AID 449762); assay type: functional
[8] = microbe, parasite or virus in culture; assay type: functional; conditions: Mycobacterium tuberculosis
[9] = viability loss of HPDE-C7K cells – cell-based, fluorescence, HTS, primary screen (AID 431); assay type: functional; conditions: Homo sapiens
[10] = target: T5, Peroxisome proliferator-activated receptor gamma/Nuclear receptor coactivator 2 (Homo sapiens, UniProt P37231); experiment: TR-FRET dose response biochemical High Throughput Screening assay for agonists of the steroid receptor coactivator 2 (SRC-2) recruitment by the peroxisome proliferator-activated receptor gamma (PPAR gamma): non-selective agonists. [Related pubchem assays: 1297, 1032 ]; assay type: functional
T5 sequence (P37231 whole entry): as the sequence (P37231 whole entry) above
T5 sequence (Q15596 whole entry, further chain): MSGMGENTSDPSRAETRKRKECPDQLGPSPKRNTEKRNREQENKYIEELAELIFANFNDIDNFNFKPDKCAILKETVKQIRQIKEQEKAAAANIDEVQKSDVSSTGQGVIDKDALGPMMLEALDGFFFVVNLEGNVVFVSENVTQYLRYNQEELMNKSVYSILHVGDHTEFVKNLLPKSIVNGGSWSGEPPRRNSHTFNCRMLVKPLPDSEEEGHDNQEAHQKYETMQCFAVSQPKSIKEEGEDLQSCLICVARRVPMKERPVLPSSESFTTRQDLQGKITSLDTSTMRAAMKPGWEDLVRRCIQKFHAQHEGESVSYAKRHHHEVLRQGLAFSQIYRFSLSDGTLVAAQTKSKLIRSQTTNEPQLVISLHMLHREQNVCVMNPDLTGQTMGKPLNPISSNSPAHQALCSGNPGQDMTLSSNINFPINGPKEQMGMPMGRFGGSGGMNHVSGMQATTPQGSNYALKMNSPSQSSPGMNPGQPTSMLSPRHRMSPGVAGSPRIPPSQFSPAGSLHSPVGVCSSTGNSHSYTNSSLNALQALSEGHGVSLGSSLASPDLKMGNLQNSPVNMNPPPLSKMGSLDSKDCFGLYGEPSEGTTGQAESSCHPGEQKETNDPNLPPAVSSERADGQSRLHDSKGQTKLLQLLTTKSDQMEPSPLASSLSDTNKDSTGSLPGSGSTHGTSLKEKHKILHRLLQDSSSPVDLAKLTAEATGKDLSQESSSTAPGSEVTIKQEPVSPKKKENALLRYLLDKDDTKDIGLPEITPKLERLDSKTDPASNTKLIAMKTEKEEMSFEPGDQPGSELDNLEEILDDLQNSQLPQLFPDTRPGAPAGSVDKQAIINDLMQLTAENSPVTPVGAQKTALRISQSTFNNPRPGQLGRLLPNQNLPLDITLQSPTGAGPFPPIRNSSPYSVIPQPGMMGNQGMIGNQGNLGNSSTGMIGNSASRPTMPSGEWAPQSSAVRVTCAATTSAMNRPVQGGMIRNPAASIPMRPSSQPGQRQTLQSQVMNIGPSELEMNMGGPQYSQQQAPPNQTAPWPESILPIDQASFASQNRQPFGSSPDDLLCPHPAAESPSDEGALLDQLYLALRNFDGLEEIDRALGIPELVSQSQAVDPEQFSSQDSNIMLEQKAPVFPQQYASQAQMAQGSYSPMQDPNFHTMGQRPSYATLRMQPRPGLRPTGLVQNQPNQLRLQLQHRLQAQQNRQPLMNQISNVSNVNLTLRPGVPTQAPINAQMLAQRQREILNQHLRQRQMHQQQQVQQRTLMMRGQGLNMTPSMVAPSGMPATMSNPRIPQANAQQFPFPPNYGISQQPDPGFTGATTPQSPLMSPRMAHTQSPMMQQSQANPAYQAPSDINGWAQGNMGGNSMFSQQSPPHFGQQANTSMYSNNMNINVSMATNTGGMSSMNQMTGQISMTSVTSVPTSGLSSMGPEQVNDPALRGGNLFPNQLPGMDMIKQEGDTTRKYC

[11] = target: T6, Replicative DNA helicase DnaB (Mycobacterium tuberculosis, UniProt P9WMR3); experiment: DnaB intein splicing inhibitors, dose response, biochemical, cell-free fluorescence (AID 449749); assay type: functional
T6 sequence (P9WMR3 whole entry): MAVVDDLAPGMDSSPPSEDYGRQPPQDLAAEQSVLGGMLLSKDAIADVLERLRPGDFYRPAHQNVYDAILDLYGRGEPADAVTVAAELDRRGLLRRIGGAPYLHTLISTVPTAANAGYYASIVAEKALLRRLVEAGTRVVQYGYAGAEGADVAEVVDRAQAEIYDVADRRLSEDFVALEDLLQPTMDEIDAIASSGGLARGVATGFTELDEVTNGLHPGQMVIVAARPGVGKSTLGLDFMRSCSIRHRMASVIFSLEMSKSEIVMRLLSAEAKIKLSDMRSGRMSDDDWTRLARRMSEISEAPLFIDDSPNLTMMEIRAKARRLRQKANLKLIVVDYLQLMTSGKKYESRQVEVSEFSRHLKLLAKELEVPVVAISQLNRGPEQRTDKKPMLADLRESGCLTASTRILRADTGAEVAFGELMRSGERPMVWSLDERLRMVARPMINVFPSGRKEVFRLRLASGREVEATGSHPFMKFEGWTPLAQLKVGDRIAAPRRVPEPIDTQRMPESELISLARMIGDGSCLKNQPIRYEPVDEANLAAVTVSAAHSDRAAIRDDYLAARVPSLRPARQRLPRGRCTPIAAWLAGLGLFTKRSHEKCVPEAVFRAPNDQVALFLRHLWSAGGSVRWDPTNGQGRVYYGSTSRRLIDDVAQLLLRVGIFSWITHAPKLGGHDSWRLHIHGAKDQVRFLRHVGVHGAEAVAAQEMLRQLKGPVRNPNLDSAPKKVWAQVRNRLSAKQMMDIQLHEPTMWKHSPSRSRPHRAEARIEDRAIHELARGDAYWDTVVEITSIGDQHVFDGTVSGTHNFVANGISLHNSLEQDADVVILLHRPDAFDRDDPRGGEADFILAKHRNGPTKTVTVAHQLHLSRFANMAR

Protein RecA = target: T7, Protein RecA (Mycobacterium tuberculosis, UniProt P9WHJ3); experiment: Fluorescence Cell-Free Homogeneous Dose Retest to Identify Inhibitors of RecA-Intein Splicing Activity. [Related pubchem assays (depositor defined):AID2097, AID2223, AID489010, AID492950]; assay type: functional
T7 sequence (P9WHJ3 whole entry): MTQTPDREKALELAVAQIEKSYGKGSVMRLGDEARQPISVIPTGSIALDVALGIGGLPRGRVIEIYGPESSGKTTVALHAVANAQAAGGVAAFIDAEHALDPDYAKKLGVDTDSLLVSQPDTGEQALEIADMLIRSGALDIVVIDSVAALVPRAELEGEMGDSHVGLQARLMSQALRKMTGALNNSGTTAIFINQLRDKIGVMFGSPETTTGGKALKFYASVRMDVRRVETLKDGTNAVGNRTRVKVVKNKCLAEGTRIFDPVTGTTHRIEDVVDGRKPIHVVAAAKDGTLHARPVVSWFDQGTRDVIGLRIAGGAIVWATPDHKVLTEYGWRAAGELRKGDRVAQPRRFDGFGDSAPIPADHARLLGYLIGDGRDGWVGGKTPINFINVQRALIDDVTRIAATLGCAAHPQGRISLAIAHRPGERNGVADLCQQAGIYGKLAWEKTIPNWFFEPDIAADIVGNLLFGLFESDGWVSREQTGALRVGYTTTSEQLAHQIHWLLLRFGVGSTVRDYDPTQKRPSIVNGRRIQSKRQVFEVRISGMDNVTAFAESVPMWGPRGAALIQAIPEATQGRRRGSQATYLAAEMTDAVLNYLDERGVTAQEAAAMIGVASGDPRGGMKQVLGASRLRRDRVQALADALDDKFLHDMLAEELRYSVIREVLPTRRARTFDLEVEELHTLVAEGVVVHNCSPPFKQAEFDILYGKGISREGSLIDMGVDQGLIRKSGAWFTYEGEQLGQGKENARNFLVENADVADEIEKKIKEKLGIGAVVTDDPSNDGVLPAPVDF

Fatty acid synthase [12] = target: T8, Fatty acid synthase (Homo sapiens, UniProt P49327); experiment: inhibition of human FAS-TE enzyme activity – biochemical, endpoint fluorescence intensity, uHTS hits, dose response (AID 624327); assay type: functional;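 note: fluorescence from hydrolysis of an O-methyl fluorescein acyl ester substrate by the enzyme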
Fatty acid synthase [13] = target: T8, Fatty acid synthase; experiment: inhibition of human FAS-TE enzyme activity – biochemical, kinetic fluorescence intensity, dose response (AID 624326); assay type: functional;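 note: rate of fluorescence rise from hydrolysis of a fluorogenic O-methyl fluorescein ester substrate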
Hexokinase HKDC1 = target: T9, Hexokinase HKDC1 (Homo sapiens, UniProt Q2TB90); experiment: inhibition of HKDC1 glucose phosphorylation – biochemical, W721R variant, dose response (AID 504729); assay type: functional
T9 sequence (Q2TB90 whole entry): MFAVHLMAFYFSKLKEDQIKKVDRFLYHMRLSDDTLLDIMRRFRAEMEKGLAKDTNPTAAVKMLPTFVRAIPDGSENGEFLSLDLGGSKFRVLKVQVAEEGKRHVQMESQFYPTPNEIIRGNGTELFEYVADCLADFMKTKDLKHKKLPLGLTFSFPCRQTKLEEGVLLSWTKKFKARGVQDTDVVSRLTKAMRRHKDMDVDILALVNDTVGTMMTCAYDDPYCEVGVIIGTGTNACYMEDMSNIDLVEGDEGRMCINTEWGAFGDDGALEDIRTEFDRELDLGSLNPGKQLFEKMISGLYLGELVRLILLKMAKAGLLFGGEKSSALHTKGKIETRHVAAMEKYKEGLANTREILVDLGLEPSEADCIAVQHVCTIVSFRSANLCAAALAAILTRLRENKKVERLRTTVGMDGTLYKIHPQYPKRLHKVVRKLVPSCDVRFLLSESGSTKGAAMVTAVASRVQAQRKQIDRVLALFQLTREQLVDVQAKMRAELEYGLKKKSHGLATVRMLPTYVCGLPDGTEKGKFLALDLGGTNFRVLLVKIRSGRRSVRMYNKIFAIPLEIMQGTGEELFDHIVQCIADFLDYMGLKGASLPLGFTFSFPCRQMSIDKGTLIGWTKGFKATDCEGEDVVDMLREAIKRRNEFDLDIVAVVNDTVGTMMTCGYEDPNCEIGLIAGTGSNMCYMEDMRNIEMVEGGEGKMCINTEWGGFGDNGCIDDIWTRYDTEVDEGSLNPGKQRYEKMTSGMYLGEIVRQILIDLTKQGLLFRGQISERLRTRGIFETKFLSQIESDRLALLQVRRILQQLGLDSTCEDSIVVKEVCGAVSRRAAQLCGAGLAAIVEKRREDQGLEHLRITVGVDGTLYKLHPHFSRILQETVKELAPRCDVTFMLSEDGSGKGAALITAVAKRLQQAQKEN

ELAV-like protein 1 = ELAV-like protein 1 (Homo sapiens, UniProt Q15717); experiment: Identify HuR specific inhibitors.; assay type: functional
[14] = target: Heat shock protein HSP 90-alpha (Homo sapiens, UniProt P07900); assay type: functional, organism-based
[15] = viability loss in Vero cells – cytotoxicity control for Vif-APOBEC3G degradation inhibitor project, dose response (AID 1117358); assay type: functional; conditions: Vero
[16] = target: Glucose-6-phosphate 1-dehydrogenase (Homo sapiens, UniProt P11413); experiment: inhibition of Homo sapiens G6PD, dose series – biochemical, fluorescence, selectivity assay for P. falciparum G6PD inhibitor project, dose response (AID 504792); assay type: functional
Genome polyprotein = Genome polyprotein (dengue virus type 2, UniProt P29990); experiment: flavivirus cap methylation enzyme inhibition – biochemical, confirmation dose response, primary screen (AID 588689); assay type: functional
Protein Tat = target: T10, Protein Tat (Human immunodeficiency virus type 1 group M subtype B (isolate HXB2)(HIV-1), UniProt P04608); assay type: functional;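 note: tat binding to TAR RNA read out by fluorescence polarization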
T10 sequence (P04608 whole entry): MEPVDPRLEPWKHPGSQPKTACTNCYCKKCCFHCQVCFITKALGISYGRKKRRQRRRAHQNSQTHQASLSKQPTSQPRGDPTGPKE

[17] = viability loss in THP-1 monocytes – THP-1 cells, cytotoxicity control for Vif-APOBEC3G degradation inhibitor project, dose response (AID 1117359); assay type: functional; conditions: THP-1
[18] = HIV-1 Vif–A3G interaction blockers – biochemical, TR-FRET, GST-Vif 1-94, biotin-A3G peptide, dose response retest, primary screen (AID 1117319); assay type: functional;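 note: TR-FRET signal of purified GST-Vif binding a biotinylated A3G peptide; inhibitors lower the FRET signal by blocking Vif and A3G binding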
[19] = target: T5, Peroxisome proliferator-activated receptor gamma/Nuclear receptor coactivator 2; assay type: functional
[20] = target: T3, Peroxisome proliferator-activated receptor gamma/Nuclear receptor coactivator 1; assay type: functional
[21] = target: Neuropeptide Y receptor type 2 (Homo sapiens, UniProt P49146); experiment: IC50 for human NPY-Y2 blockade – cell-based, counter-screen for NPY-Y1 antagonist project, dose response (AID 1278); assay type: functional
Sequence of Neuropeptide Y receptor type 2 (P49146 whole entry): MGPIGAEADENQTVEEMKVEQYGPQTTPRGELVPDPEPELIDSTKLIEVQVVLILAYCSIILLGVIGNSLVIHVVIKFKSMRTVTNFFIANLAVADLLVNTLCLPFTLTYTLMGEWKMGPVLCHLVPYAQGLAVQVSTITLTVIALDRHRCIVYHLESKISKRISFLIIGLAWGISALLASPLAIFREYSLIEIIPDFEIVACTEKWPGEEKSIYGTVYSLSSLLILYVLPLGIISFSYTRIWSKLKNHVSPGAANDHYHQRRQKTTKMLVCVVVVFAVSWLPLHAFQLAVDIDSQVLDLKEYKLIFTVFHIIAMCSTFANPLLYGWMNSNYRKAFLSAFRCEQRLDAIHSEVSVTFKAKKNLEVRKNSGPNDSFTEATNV

[22] = target: T4, Peroxisome proliferator-activated receptor gamma/Nuclear receptor coactivator 3; assay type: functional
[23] = target: E3 ubiquitin-protein ligase Mdm2 (Homo sapiens, UniProt Q00987); experiment: MDM2-luc reporter signal enhancers, multi-concentration potency testing, MDM2 ubiquitin-protein ligase inhibitor program, whole-cell format, luminescence detection, 384-well microplate (AID 1394); assay type: functional;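 note: MDM2 E3 inhibitors raise luminescence so EC50 is for signal enhancement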
Sequence of E3 ubiquitin-protein ligase Mdm2 (Q00987 whole entry): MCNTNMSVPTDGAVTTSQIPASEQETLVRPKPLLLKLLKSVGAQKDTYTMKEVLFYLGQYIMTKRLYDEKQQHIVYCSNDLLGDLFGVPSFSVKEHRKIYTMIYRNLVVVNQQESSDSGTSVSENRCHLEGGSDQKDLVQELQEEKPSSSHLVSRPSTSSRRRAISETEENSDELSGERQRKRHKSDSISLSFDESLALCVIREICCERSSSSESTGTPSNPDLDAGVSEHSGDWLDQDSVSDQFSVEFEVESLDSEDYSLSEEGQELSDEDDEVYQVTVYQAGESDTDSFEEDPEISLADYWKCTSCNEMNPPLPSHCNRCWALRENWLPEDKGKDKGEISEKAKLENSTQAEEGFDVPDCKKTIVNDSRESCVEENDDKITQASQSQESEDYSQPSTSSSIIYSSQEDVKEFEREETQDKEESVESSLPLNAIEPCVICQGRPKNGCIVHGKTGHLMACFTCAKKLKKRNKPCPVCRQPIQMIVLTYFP

COc1ccc(-c2nnc3sc(-c4c(OC)cccc4OC)nn23)cc1
IC50 (Bcl-2-related protein A1 [1]): 18.1 µM (active)
IC50 (Bcl-2-related protein A1 [2]): > 100 µM (not active)

O=C(CCCn1c(=O)[nH]c2cc(Cl)ccc2c1=O)NCCN1CCN(c2ccccc2)CC1
IC50 [3]: > 100 µM (not active)

O=C(Sc1nnc(-c2ccccc2)o1)N1c2ccccc2Sc2ccccc21
EC50 [4]: 34.9 µM (inactive)
EC50 [5]: > 79.4 µM (not active)
EC50 [6]: 5.48 µM (active)
IC50 [7]: > 100 µM (active)
CC50 [8]: > 40 µM (active)
EC50 [9]: 6.64 µM (active)
EC50 [10]: 20.8 µM (not active)
AC50 [11]: 1.25 µM (active)
EC50 (Protein RecA): 0.804 µM (active)
IC50 (Fatty acid synthase [12]): 10.4 µM (active)
IC50 (Fatty acid synthase [13]): 16.3 µM (active)

COCC(=O)OC1CCn2c1nc1c2C(=O)C(C)=C(NC(C)=O)C1=O (stereo not drawn)
IC50 (Hexokinase HKDC1): 2.18 µM (active)
IC50 (ELAV-like protein 1): 17.4 µM (inactive)

CCCCCCC(=O)N(O)C1CC(=O)N(c2ccc(Br)cc2)C1=O (stereo not drawn)
AC50 [14]: 3.17 µM (active)
CC50 [15]: > 40 µM (active)

Cc1ccc(CNc2ccc(O)cc2)cc1
IC50 [16]: > 80 µM (inactive)
IC50 (Genome polyprotein): 92.5 µM (active)
IC50 (Protein Tat): 25.5 µM (inconclusive)
CC50 [17]: > 40 µM (active)
IC50 [18]: > 50.9 µM (active)

Cn1ccnc1C1CCCCN1Cc1nc(-c2ccc3c(c2)OCO3)no1 (stereo not drawn)
EC50 [19]: > 79.4 µM (not active)
EC50 [20]: > 79.4 µM (not active)
IC50 [21]: > 35 µM (not active)
EC50 [22]: > 79.4 µM (not active)

CCn1c(=O)n(CC(=O)Nc2cc(OC)c(OC)c(OC)c2)c(=O)c2ccccc21
EC50 [23]: 13.2 µM (not active)

— ChEMBL document CHEMBL1201862, “PubChem BioAssay data set” (2004)
